≈ marks a conversion by molar mass, not a printed value.
Experiments:
Assay type in all cases: functional
Details in all cases: read-out: ED50 (the source's name)
P388 = experiment: Cytotoxicity against mouse P388 cells by modified MTT assay
A549 = experiment: Cytotoxicity against human A549 cells by modified MTT assay
KB = experiment: Cytotoxicity against human KB cells by modified MTT assay
HT-29 = experiment: Cytotoxicity against human HT29 cells by modified MTT assay

Compound	EC50 (P388) [µg/mL]	EC50 (A549) [µg/mL]	EC50 (KB) [µg/mL]	EC50 (HT-29) [µg/mL]
C=C(CC[C@@H](C)[C@H]1CC[C@H]2[C@@H]3C[C@@H](O)[C@@]4(O)C[C@@H](O)C[C@H](O)[C@]4(C)[C@H]3CC[C@]12C)C(C)C	8.3 (≈ 18.5 µM)	10.8 (≈ 24.1 µM)	1.9 (≈ 4.23 µM)	1.5 (≈ 3.34 µM)
CC(C)[C@@H](C)[C@H]1C[C@@H]1[C@@H](C)[C@H]1CC[C@@H]2[C@]1(C)CC[C@H]1[C@]23C=C[C@]2(C[C@@H](O)CC[C@]12C)OO3	0.4 (≈ 0.904 µM)	2.7 (≈ 6.1 µM)	2.1 (≈ 4.74 µM)	1.4 (≈ 3.16 µM)
CC(=O)[C@H]1CC[C@H]2[C@@H]3CC=C4C[C@@H](O)CC[C@]4(C)[C@H]3CC[C@]12C [PREGNENOLONE]	7.8 (≈ 24.6 µM)	8.6 (≈ 27.2 µM)	> 50	0.7 (≈ 2.21 µM)

— ChEMBL document CHEMBL1155667, “A cytotoxic 5alpha,8alpha-epidioxysterol from a soft coral Sinularia species” (2000)
